Experiments:
[1] = test system: Dhcr7-deficient Neuro2a neuroblastoma cells; experiment: Oxysterol levels in Dhcr7-deficient Neuro2a neuroblastoma cells treated with fatty acid; type: cell-based; conditions: for levels of oxysterols associated with free radical induced oxidation: 20 micromolar, Dhcr7 expression depleted by RNA interference, 7-DHC accumulates
Experimental: Dhcr7-deficient Neuro2a neuroblastoma cells were treated with D2-linoleic acid, and non-deuterated linoleic acid ("Lin") was used in a control experiment. The level of Dhcr7 gene expression was depleted by RNA interference, leading to accumulation of 7-DHC in the cells. 7-DHC is 1-2 orders of magnitude more oxidizeable than linoleic acid, and so can easily initiate lipid peroxidation (See Yin et al., "Free Radical Lipid Peroxidation: Mechanisms and Analysis," Chem Rev. (2011), 111(10), 5944-5972).

[2] = test system: Q-less (coq2, coq3, and coq5) yeast mutants; conditions: cited from earlier work; for sensitivity of Q-less yeast to treatment: compared with the wild-type parental strain
[3] = test system: wild-type (the parental genetic background is strain W303-1B) cells; conditions: following a four hour treatment; 240 min; cited from earlier work

SMILES | levels of oxysterols associated with free radical induced oxidation [1] | sensitivity of Q-less yeast to treatment [2] | other results
CCCCC/C=C\C/C=C\CCCCCCCC(=O)O [Lin, cis, cis-9,12-Octadecadienoic acid] | substantially increased |  | 
CCCCC/C=C\C/C=C\C/C=C\C/C=C\CCCC(=O)O [arachidonic acid] |  | hypersensitive | 
[2H]C([2H])(/C=C\CCCCC)/C=C\CCCCCCCC(=O)O [D2-Lin, 11,11-Dideutero-cis,cis-9,12-Octadecadienoic acid] | low levels |  | oxidative stress ([1]; 20 micromolar (same concentration as Lin), judged by oxysterol levels): did not induce oxidative stress
CCCCCCCC/C=C\CCCCCCCC(=O)O [oleic acid] |  | behave the same as the wild-type parental strain | 
CC/C=C\C/C=C\C/C=C\CCCCCCCC(=O)O [linolenic acid, cis,cis,cis-9,12,15-Octadecatrienoic acid] |  |  | viable wild-type cells [3]: 70%; viable Q-less yeast mutants ([2]; following a four hour treatment, 240 min): Less than 1%

From patent publication EP3943081A1, “OPTIC NEUROPATHY TREATMENT AND REDUCTION OF STEROID- INDUCED OXIDATIVE STRESS WITH STABILIZED POLYUNSATURATED SUBSTANCES” (Retrotope, Inc., priority 2014, dated 2015)
